Experimental data as given in ChEMBL document CHEMBL1137896, “Synthesis and AMPA receptor antagonistic activity of a novel 7-imidazolyl-6-trifluoromethyl quinoxalinecarboxylic acid with a substituted phenyl group and improved its good physicochemical properties by introduced CF3 group” (Bioorg Med Chem Lett, 2004).
Converted amounts (≈) assume the structure as drawn.

Experiments:
[1] = system: Rattus norvegicus; assay: In vivo protective effect in focal ischemia rat model was determined after intravenous dosage at 2.5 mg/kg/h for 4 hr; assay type: functional
[2] = Solubility at pH 7.4; assay type: physicochemical; conditions: buffer
[3] = target: Glutamate receptor ionotropic, AMPA (Rattus norvegicus, UniProt P19490+P19491+P19492+P19493); assay: Displacement of [3H]AMPA (5 nM) from ionotropic glutamate receptor AMPA of rat cerebral cortex synaptic membrane preparation; assay type: tissue-based
[4] = system: Rattus norvegicus; assay: In vivo protective effect in focal ischemia rat model was determined after intravenous dosage at 15 mg/kg/h for 4 hr; assay type: functional
[5] = system: Rattus norvegicus; assay: In vivo protective effect in focal ischemia rat model was determined after intravenous dosage at 30 mg/kg/h for 4 hr; assay type: functional

SMILES	Ki [3] [µM]	other results
O=C(Nc1ccc(C(=O)O)cc1)OCc1cn(-c2cc3nc(C(=O)O)c(O)nc3cc2[N+](=O)[O-])cn1	–	Protection [1]: 3; solubility [2]: 4860 µg/mL (≈ 9.83 mM)
O=C(O)c1nc2cc(-n3ccnc3)c(C(F)(F)F)cc2nc1O	0.086	–
O=C(Nc1ccc(C(F)(F)F)cc1)OCc1cn(-c2cc3nc(C(=O)O)c(O)nc3cc2C(F)(F)F)cn1	0.029	–
COc1ccc(NC(=O)OCc2cn(-c3cc4nc(C(=O)O)c(O)nc4cc3C(F)(F)F)cn2)cc1	0.03	–
O=C(Nc1cccc(Br)c1)OCc1cn(-c2cc3nc(C(=O)O)c(O)nc3cc2C(F)(F)F)cn1	0.0052	–
O=C(NCc1ccccc1)OCc1cn(-c2cc3nc(C(=O)O)c(O)nc3cc2C(F)(F)F)cn1	0.19	–
O=C(Nc1cccc(C(=O)O)c1)OCc1cn(-c2cc3nc(C(=O)O)c(=O)[nH]c3cc2C(F)(F)F)cn1	0.035	–
O=c1[nH]c2cc(-n3ccnc3)c([N+](=O)[O-])cc2[nH]c1=O [YM-90K]	–	Protection [4]: 2.8; solubility [2]: 1000 µg/mL (≈ 3.66 mM)
O=C(O)Cn1c(=O)c(=O)[nH]c2cc([N+](=O)[O-])c(-n3ccnc3)cc21 [ZONAMPANEL]	–	solubility [2]: > 5000 µg/mL; Protection [5]: 0.5

Continued, in another order:

Ki [3] [µM]	SMILES	other results
0.013	O=C(Nc1cc(Cl)cc(Cl)c1)OCc1cn(-c2cc3nc(C(=O)O)c(O)nc3cc2C(F)(F)F)cn1	–
0.02	Cc1ccc(NC(=O)OCc2cn(-c3cc4nc(C(=O)O)c(O)nc4cc3C(F)(F)F)cn2)cc1	–
0.02	O=C(Nc1ccc(Br)cc1)OCc1cn(-c2cc3nc(C(=O)O)c(O)nc3cc2C(F)(F)F)cn1	–
0.016	O=C(Nc1ccc(C(=O)O)cc1)OCc1cn(-c2cc3nc(C(=O)O)c(O)nc3cc2C(F)(F)F)cn1	Protection [1]: 2.7; solubility [2]: 8290 µg/mL (≈ 16 mM)
0.023	O=C(Nc1ccccc1)OCc1cn(-c2cc3nc(C(=O)O)c(O)nc3cc2C(F)(F)F)cn1	–
